Assay results from patent US10259810B2, “N-sulfonylated pyrazolo[3,4-b]pyridin-6-carboxamides and method of use” (AbbVie S.à.r.l., priority 2015, dated 2019).
Read-outs that look alike come from different tables or passages of the source.

Columns and labels:
Format in all cases: cell-based
[1] = biological target: T1, ΔF508-CFTR (Homo sapiens, UniProt P13569, DEL508-508); test: CFTR cell surface levels using HRP-tagged ΔF508-CFTR expressing CFBE cells, in the presence of a co-corrector
T1 construct: host or cells: CFBE41o-, doxycycline-inducible
T1 sequence (P13569 with tags, fused parts or gaps DEL508-508): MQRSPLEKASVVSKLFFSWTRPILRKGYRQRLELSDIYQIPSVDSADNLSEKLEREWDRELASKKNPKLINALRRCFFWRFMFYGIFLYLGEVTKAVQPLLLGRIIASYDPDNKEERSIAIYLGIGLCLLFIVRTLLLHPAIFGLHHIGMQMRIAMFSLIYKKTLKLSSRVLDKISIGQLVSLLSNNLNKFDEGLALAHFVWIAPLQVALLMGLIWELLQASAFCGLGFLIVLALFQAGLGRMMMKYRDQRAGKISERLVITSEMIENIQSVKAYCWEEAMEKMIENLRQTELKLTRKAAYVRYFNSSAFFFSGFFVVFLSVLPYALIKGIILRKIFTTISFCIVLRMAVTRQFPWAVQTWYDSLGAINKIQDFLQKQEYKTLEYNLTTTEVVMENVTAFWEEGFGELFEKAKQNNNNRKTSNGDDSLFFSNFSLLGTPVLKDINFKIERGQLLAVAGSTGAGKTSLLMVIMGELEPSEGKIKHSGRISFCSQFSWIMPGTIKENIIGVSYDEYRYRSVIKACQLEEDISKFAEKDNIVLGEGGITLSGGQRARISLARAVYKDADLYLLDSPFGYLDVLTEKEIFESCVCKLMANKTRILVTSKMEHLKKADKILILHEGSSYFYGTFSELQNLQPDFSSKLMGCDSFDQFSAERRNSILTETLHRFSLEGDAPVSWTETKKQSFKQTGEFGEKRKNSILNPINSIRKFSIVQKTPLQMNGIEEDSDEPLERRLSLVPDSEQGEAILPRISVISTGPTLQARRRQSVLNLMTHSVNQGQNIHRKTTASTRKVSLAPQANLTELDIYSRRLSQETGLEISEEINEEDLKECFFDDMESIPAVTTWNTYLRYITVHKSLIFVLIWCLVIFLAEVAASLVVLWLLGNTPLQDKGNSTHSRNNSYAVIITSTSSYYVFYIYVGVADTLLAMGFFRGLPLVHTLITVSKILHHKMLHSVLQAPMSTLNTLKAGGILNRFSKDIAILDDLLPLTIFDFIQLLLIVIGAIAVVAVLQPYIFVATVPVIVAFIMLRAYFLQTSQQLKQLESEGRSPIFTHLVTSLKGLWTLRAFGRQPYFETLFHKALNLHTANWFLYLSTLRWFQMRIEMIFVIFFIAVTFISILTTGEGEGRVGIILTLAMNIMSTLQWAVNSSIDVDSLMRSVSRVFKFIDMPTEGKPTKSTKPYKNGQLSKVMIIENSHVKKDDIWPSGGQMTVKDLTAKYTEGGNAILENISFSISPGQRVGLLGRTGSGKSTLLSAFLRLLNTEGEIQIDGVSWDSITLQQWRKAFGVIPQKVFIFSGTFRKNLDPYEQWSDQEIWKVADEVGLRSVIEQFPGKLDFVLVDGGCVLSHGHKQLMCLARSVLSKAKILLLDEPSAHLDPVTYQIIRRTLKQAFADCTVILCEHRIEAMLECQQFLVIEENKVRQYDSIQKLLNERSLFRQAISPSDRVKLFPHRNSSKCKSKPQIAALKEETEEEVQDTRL
In short: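 Chemiluminescent read-out of surface HRP (15 min, dark) after PBS washes. Activity is normalized as 100×(sample−DMSO)/(3 μM co-corrector alone−DMSO).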

[2] = biological target: T1, ΔF508-CFTR; test: CFTR cell surface levels using HRP-tagged ΔF508-CFTR expressing CFBE cells, intrinsic corrector capacity; set-up: % Activation: concentration or dose not given beside the values
In short: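 Surface ΔF508-CFTR was measured as HRP chemiluminescence from an extracellular-loop-4 tag, expressed as percent activity between DMSO and a […] corrector control.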

[3] = biological target: T2, CFTR ΔF508 (Homo sapiens, UniProt P13569, DEL508-508); test: Chronic TECC assay, primary bronchial epithelial cells of CF patients homozygous for CFTR ΔF508 (corrector, co-corrector and potentiator); details: for % Activity at 3 μM (AUC**): test compound at 3 μM
T2 construct: bronchial epithelial cells isolated from CF patients homozygous for the CFTR ΔF508 mutation; McGill University; Asterand; University of North Carolina hAEC-CF; host or cells: primary human bronchial epithelial cells from CF patients homozygous for ΔF508, differentiated at air-liquid interface
T2 sequence (P13569 with tags, fused parts or gaps DEL508-508): as above
In short: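 Primary bronchial epithelial cells from ΔF508-homozygous CF patients on collagen IV-coated Transwells were chronically treated with test compound plus corrector and potentiator, which were re-added before recording. Ieq was derived from PD and Rt in NaCl-Ringer, pH 7.4, at 37° C, with apical amiloride and bilateral forskolin, recorded every 2 min over 20 min. Ieq increase was normalized to controls, and EC50 was taken from per-well concentrations.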

[4] = HRP-tagged ΔF508-CFTR CFBE cells, in the presence of 3 μM co-corrector
[5] = HRP-tagged ΔF508-CFTR CFBE cells, in the presence of 3 μM co-corrector, read-out: EC50
[6] = HRP-tagged ΔF508-CFTR expressing CFBE41o- cells, compound alone (intrinsic corrector capacity), 20 hours at 33° C.
[7] = HRP-tagged ΔF508-CFTR expressing CFBE41o- cells, compound alone (intrinsic corrector capacity), 20 hours at 33° C., read-out: EC50
[8] = chronic TECC, test compound at 1 μM, AUC = full area under the curve upon forskolin stimulation
[9] = chronic TECC, AUC = full area under the curve upon forskolin stimulation

SMILES	% Activation [1, 4] [%]	EC50 [1, 5] [nM]	% Activation [2, 6] [%]	EC50 [2, 7] [nM]	EC50 ([3]; chronic TECC, AUC = full area under the curve upon forskolin stimulation, read-out: EC50 (nM) (AUC**))	% Activity at 1 μM (AUC**) [3, 8] [%]	EC50 [1] [nM]	EC50 [2] [nM]	EC50 [3] [nM]	EC50 ([3]; chronic TECC, Ieq = calculations based on the maximum current, read-out: EC50 (nM) (Ieq*))	% Activity at 1 μM (Ieq*) ([3]; chronic TECC, test compound at 1 μM, Ieq = calculations based on the maximum current) [%]	% Activity at 3 μM (AUC**) [3, 9] [%]
COCCN(CCOC)c1ccc(-c2cc(C(=O)NS(C)(=O)=O)nc3c2c(C2CCC2)nn3-c2ccccc2)cn1 [Compound 246, 4-{6-[bis(2-methoxyethyl)amino]pyridin-3-yl}-3-cyclobutyl-N-(methanesulfonyl)-1-phenyl-1H-pyrazolo[3,4-b]pyridine-6-carboxamide]	331.65	77.3	112.1	371	61	301.36						
CS(=O)(=O)NC(=O)c1cc(N2CCC(CCN3CCOCC3)CC2)c2c(C3CCC3)nn(-c3ccccc3)c2n1 [Compound 331, 3-cyclobutyl-N-(methanesulfonyl)-4-{4-[2-(morpholin-4-yl)ethyl]piperidin-1-yl}-1-phenyl-1H-pyrazolo[3,4-b]pyridine-6-carboxamide]	546.05		347.15				38.2	136	10			
CCS(=O)(=O)NC(=O)c1cc(-c2ccc(N3CCOCC3)cc2)c2c(C)nn(-c3ccc(F)cc3F)c2n1 [Compound 113, 1-(2,4-difluorophenyl)-N-(ethanesulfonyl)-3-methyl-4-[4-(morpholin-4-yl)phenyl]-1H-pyrazolo[3,4-b]pyridine-6-carboxamide]	455.63	235	262.33	464						32	310	
COCCS(=O)(=O)NC(=O)c1cc(N2CCC(COC)CC2)c2c(C(C)C)nn(-c3ccnc(N4CCOCC4)c3)c2n1 [Compound 249, N-(2-methoxyethanesulfonyl)-4-[4-(methoxymethyl)piperidin-1-yl]-1-[2-(morpholin-4-yl)pyridin-4-yl]-3-(propan-2-yl)-1H-pyrazolo[3,4-b]pyridine-6-carboxamide]	468.15	231	187.6	371		271.29						
CN(C)S(=O)(=O)NC(=O)c1cc(N2CCC3C(CCN3C3COC3)C2)c2c(C3CCC3)nn(-c3ccc(F)cc3)c2n1 (stereo not drawn) [Compound 627, 3-cyclobutyl-N-(dimethylsulfamoyl)-1-(4-fluorophenyl)-4-[1-(oxetan-3-yl)octahydro-5H-pyrrolo[3,2-c]pyridin-5-yl]-1H-pyrazolo[3,4-b]pyridine-6-carboxamide]	348.57	24.8	162.47	82.3								446.6667
COCC1CCN(c2cc(C(=O)NS(=O)(=O)N3CCOCC3)nc3c2c(C2CCC2)nn3-c2ccccc2)CC1 [Compound 396, 3-cyclobutyl-4-[4-(methoxymethyl)piperidin-1-yl]-N-(morpholine-4-sulfonyl)-1-phenyl-1H-pyrazolo[3,4-b]pyridine-6-carboxamide]	385.8	55	222.9	121								259.4666
COC1CN(S(=O)(=O)NC(=O)c2cc(N3CCC(N4CCOCC4)CC3)c3c(C4CCC4)nn(-c4ccc(F)cc4)c3n2)C1 [Compound 484, 3-cyclobutyl-1-(4-fluorophenyl)-N-(3-methoxyazetidine-1-sulfonyl)-4-[4-(morpholin-4-yl)piperidin-1-yl]-1H-pyrazolo[3,4-b]pyridine-6-carboxamide]	485.6	142	216.9	124		380						
COCC1CN(c2cc(C(=O)NS(C)(=O)=O)nc3c2c(C2CCC2)nn3-c2ccccc2)C1 [Compound 193, 3-cyclobutyl-N-(methanesulfonyl)-4-[3-(methoxymethyl)azetidin-1-yl]-1-phenyl-1H-pyrazolo[3,4-b]pyridine-6-carboxamide]	341.37	589	175.23	1070		317.57						
